Reference: article PMC5004178, “A novel inhibitory effect of oxazol-5-one compounds on ROCKII signaling in human coronary artery vascular smooth muscle cells” (Scientific Reports, 2016)

Target: T1, ROCKII (Homo sapiens, UniProt O75116)
T1 construct: gene ROCK2; ROCKII(5–554), constitutively active recombinant
Assay: […]-phosphoryl transfer kinase assay with LC20 peptide; steady-state kinetics
Assay type: biochemical

T1 sequence (O75116 5-554): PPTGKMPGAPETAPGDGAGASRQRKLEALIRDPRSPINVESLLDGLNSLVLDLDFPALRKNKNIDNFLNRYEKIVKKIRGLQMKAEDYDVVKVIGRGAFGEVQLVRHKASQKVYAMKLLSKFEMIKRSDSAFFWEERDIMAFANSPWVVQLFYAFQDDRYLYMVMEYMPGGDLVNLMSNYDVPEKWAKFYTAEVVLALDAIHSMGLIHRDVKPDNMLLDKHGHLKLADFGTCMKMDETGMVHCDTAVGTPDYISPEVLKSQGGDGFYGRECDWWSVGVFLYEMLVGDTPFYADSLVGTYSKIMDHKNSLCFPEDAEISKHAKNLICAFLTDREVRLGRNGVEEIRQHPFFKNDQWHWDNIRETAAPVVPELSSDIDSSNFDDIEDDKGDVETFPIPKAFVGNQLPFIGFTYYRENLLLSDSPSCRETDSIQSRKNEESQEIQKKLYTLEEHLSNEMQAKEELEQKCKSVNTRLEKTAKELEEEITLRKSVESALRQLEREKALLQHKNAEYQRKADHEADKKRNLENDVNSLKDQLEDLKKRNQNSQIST

Q: For `O=C1OC(c2ccc(Cl)c([N+](=O)[O-])c2)=N/C1=C\c1cccnc1` [DI, (4Z)-2-(4-chloro-3-nitrophenyl)-4-(pyridin-3-ylmethylidene)-1,3-oxazol-5-one], which Ki is on record?
A: Its Ki is 132 nM.
